In patent US8884101B2, “Method of gene introduction into Triticum plant using Agrobacterium, and a method of producing transformed Triticum plant” (priority 2009, dated 2014):

Test system: immature embryos of bread wheat (variety: Fielder)
Assay: GUS gene expression in wheat immature embryos; effect of adding plant hormone to coculture medium (Example 9)
Type: cell-based, bread wheat (Triticum aestivum)
Conditions: 5 days resting culture; for degree of GUS gene expression relative to coculture medium not containing plant hormones (FIG. 5): 0.5 μM in coculture medium, 10 immature embryos per group; for degree of GUS gene expression relative to coculture medium not containing plant hormones (FIG. 6) / degree of GUS gene expression relative to coculture medium not containing plant hormones (FIG. 4): 5 μM in coculture medium; for degree of GUS gene expression relative to coculture medium not containing plant hormones (FIG. 6): 18 or 19 immature embryos per group; for degree of GUS gene expression relative to coculture medium not containing plant hormones (FIG. 4): 16 or 17 immature embryos per group
Description: Bread wheat (variety: Fielder) was cultivated in a greenhouse equipped with an air conditioner, and the immature embryos (size: 1.5 to 3.0 mm) of the bread wheat were aseptically collected on the 14th day after flowering and were washed once with an Inf liquid medium. Pretreatment (centrifugation at 15000 rpm for 10 min) was performed to enhance the efficiency of gene introduction in an Inf liquid medium. Agrobacterium strain EHA101 (pIG121Hm) was suspended at about 1.0×10^9 cfu/mL in an Inf liquid medium containing 100 μM acetosyringone to prepare an inoculation source. The inoculation source was added to the immature embryos, and the mixture was stirred for 30 sec, followed by leaving to stand at room temperature for 5 min. The immature embryos inoculated with Agrobacterium were placed onto a Co-Cul coculture medium containing 100 μM acetosyringone, 5 μM AgNO3, and 5 μM CuSO4 and also containing 5 μM kinetin or 4PU; 0.5 μM 2,4-D, dicamba, or picloram; or 5 μM 2,4-D, dicamba, or picloram in such a manner that the scutellum faced upward, and were cocultured at 23° C. in the dark. As a control, a Co-Cul coculture medium not containing any plant hormone was used.
On the 2nd day from the beginning of the coculture, the radicles, germs, and embryonic axes were excised using a scalpel and tweezers. The immature embryos were placed onto a resting medium (the composition is the same as that described in Example 1), followed by cultivation at 25° C. in the dark for 5 days. Subsequently, 10 to 19 immature embryos were collected from each group and were immersed in a 0.1 M phosphate buffer (pH 6.8) containing 0.1% Triton X-100 at 37° C. for 1 hr. The phosphate buffer was removed, and a phosphate buffer containing 1.0 mM 5-bromo-4-chloro-3-indolyl-β-D-glucuronic acid (X-gluc) and 20% methanol was added thereto. After treatment at 37° C. for 24 hr, the immature embryos in each group were evaluated for expression of the GUS gene in six grades: 4 (expressed in 75% or more of scutellum), 3 (expressed in 50% to 74% of scutellum), 2 (expressed in 25% to 49% of scutellum), 1 (expressed in 5% to 24% of scutellum), 0.5 (expressed in 1% to 4% of scutellum), and 0 (no expression).
A part of the immature embryos in each test group was harvested on the 5th day of the resting culture, and the GUS gene was expressed. The vertical axis in each of FIGS. 4, 5, and 6 represents the average of GUS gene expression by each immature embryo evaluated in six grades: 4 (expressed in 75% or more of scutellum), 3 (expressed in 50% to 74% of scutellum), 2 (expressed in 25% to 49% of scutellum), 1 (expressed in 5% to 24% of scutellum), 0.5 (expressed in 1% to 4% of scutellum), and 0 (no expression), that is, efficiency of gene introduction shown by expression of the GUS gene.

Row | SMILES | degree of GUS gene expression relative to coculture medium not containing plant hormones (FIG. 5) | degree of GUS gene expression relative to coculture medium not containing plant hormones (FIG. 6) | degree of GUS gene expression relative to coculture medium not containing plant hormones (FIG. 4)
1 | O=C(O)COc1ccc(Cl)cc1Cl [2,4-D, 2,4-dichlorophenoxyacetic acid] | equivalent to or slightly lower | slightly lower | 
2 | O=C(Nc1ccccc1)Nc1ccncc1 [4PU] |  |  | slightly lower
3 | COc1c(Cl)ccc(Cl)c1C(=O)O [dicamba] | equivalent to or slightly lower | slightly lower | 
4 | c1coc(CNc2ncnc3[nH]cnc23)c1 [kinetin] |  |  | slightly lower
5 | Nc1c(Cl)c(Cl)nc(C(=O)O)c1Cl [picloram] | equivalent to or slightly lower | slightly lower | 
